Where two headings read alike, the source gives them in different places.
What was measured:
[1] = molecular target: T1, aldose reductase (Rattus norvegicus, UniProt P07943); test: Inhibition of aldose reductase enzyme activity (Kador and Sharpless method, water soluble extracts of rat lenses); format: biochemical; conditions: for IC50: rat lens extract; for inhibition at 0.02 µM: 2.0 × 10^-8 M
T1 construct: water soluble extracts of rat lenses; from tissue; host or cells: rat lens (water-soluble extract)

[2] = system: polyol increase in the sciatic nerve of galactosemic rats; test: Reduction or inhibition of polyol (galactitol) increase in the sciatic nerve of galactosemic rats; format: in vivo, rat; conditions: for ED50: once a day for eight days, 30% galactose diet, sciatic nerve galactitol
Experimental: The compounds according to the invention were tested for their ability to reduce or inhibit polyol increase in the sciatic nerve of galactosemic rats. Rats were fed 30% galactose diet and were administered the compounds at the various doses of 0.4-50 mg/kg once a day for eight days. One day after the final administration (on 9th day), sciatic nerves were removed for galactitol determination. […] The selected control compounds are typical one described in the aforesaid Japanese Unexamined Patent Application Gazette.

[3] = Table 1, 10^-5 M, read-out: Inhibition (%)
[4] = Table 1, 3.3 × 10^-8 M, read-out: Inhibition (%)
[5] = Table 1, 10^-7 M, read-out: Inhibition (%)
[6] = Rattus norvegicus, 192 h, Table 4, read-out: ED50
[7] = Table 2, 10^-7 M, read-out: Inhibition (%)
[8] = Table 2, 3.3 × 10^-8 M, read-out: Inhibition (%)
[9] = Table 2, 10^-8 M, read-out: Inhibition (%)
[10] = Rattus norvegicus, 192 h, Table 3, read-out: ED50

For O=C1NC(=O)C2(CC(CBr)Oc3ccc(F)cc32)N1 (stereo not drawn) [I, 1-2-Bromomethyl-6-fluoro-2,3-dihydro-spiro[4H-1-benzopyran-4,4'-imidazolidine]-2',5'-dione], the inhibition at 3.3 µM ([1]; Table 1, 3.3 × 10^-6) was 54%, the inhibition at 10 µM [1, 3] was 75% and the inhibition at 1 µM ([1]; Table 1, 10^-6 M) was 31%. For the same compound, the IC50 ([1]; Table 1) was 2700 nM.
O=C1NC(=O)C2(CC(CBr)Oc3ccc(F)cc32)N1 (stereo not drawn) [H, d-2-Bromomethyl-6-fluoro-2,3-dihydro-spiro[4H-1-benzopyran-4,4'-imidazolidine]-2',5'-dione] showed an inhibition at 0.33 µM ([1]; Table 1, 3.3 × 10^-7 M) of 82%, an inhibition at 0.033 µM [1, 4] of 35% and an inhibition at 0.1 µM [1, 5] of 59%. The IC50 ([1]; Table 1) was 68 nM and the ED50 [2, 6] was 2.2 mg/kg.
O=C1NC(=O)C2(CC(C(=O)O)Oc3ccc(F)cc32)N1 (racemic) [Example 1, dl-6-fluoro-2,3-dihydro-2',5'-dioxo-spiro[4H-1-benzopyran-4,4'-imidazolidine]-2-carboxylic acid] was tested, and the “potency of the major diastereomer vs minor diastereomer in inhibition of polyol increase” value ([2]; sciatic nerve of galactosemic rats) was “higher than that of the minor diastereomer”.
Nc1cc(F)cc2c1OC(CCl)CC21NC(=O)NC1=O (racemic) [O, dl-8-Amino-2-chloromethyl-6-fluoro-2,3-dihydro-spiro[4H-1-benzopyran-4,4'-imidazolidine]-2',5'-dione] was tested, and the inhibition at 0.33 µM ([1]; Table 2, 3.3 × 10^-7 M) was 68%, the inhibition at 1 µM ([1]; Table 2, 10^-6 M) was 85% and the inhibition at 0.1 µM [1, 7] was 38%. It also gave an IC50 ([1]; Table 2) of 170 nM.
Compound NC(=O)[C@H]1CC2(NC(=O)NC2=O)c2cc(F)cc(N)c2O1 (stereo partly drawn) [K, d-8-Amino-6-fluoro-2,3-dihydro-2',5'-dioxo-spiro[4H-1-benzopyran-4,4'-imidazolidine]-2-carboxamide] has an inhibition at 0.033 µM [1, 8] of 60%, an inhibition at 0.1 µM [1, 7] of 70% and an inhibition at 0.01 µM [1, 9] of 27%. For the same compound, the IC50 ([1]; Table 2) was 25 nM.
NC(=O)C1CC2(NC(=O)NC2=O)c2cc(F)ccc2O1 (stereo not drawn) [C, 1-6-Fluoro-2,3-dihydro-2',5'-dioxo-spiro[4H-1-benzopyran-4,4'-imidazolidine]-2-carboxamide] showed an inhibition at 10 µM [1] of 27%.
NC(=O)C1CC2(NC(=O)NC2=O)c2cc(F)cc(N)c2O1 (racemic) [M, dl-8-Amino-6-fluoro-2,3-dihydro-2',5'-dioxo-spiro[4H-1-benzopyran-4,4'-imidazolidine]-2-carboxamide] gave an inhibition at 0.033 µM [1, 8] of 40%, an inhibition at 0.1 µM [1, 7] of 74% and an inhibition at 0.01 µM [1, 9] of 13%. It also gave an IC50 ([1]; Table 2) of 44 nM.
O=C1NC(=O)C2(CC(CBr)Oc3ccc(F)cc32)N1 (racemic) [G, dl-2-Bromomethyl-6-fluoro-2,3-dihydro-spiro[4H-1-benzopyran-4,4'-imidazolidine]-2',5'-dione] gave an inhibition at 0.33 µM ([1]; Table 1, 3.3 × 10^-7 M) of 70%, an inhibition at 0.033 µM [1, 4] of 22% and an inhibition at 0.1 µM [1, 5] of 42%. The IC50 ([1]; Table 1) was 130 nM and the ED50 [2, 6] was 7.2 mg/kg.
With NC(=O)[C@H]1CC2(NC(=O)NC2=O)c2cc(F)ccc2O1 (stereo partly drawn) [B, d-6-Fluoro-2,3-dihydro-2',5'-dioxo-spiro[4H-1-benzopyran-4,4'-imidazolidine]-2-carboxamide] the inhibition at 0.01 µM [1] was 39%, the inhibition at 0.033 µM [1] was 80% and the inhibition at 0.1 µM [1] was 93%. For the same compound, the ED50 [2, 10] was 1.3 mg/kg.
Compound NC(=O)C1CC2(NC(=O)NC2=O)c2cc(F)ccc2O1 (racemic) [A, dl-6-Fluoro-2,3-dihydro-2',5'-dioxo-spiro[4H-1-benzopyran-4,4'-imidazolidine]-2-carboxamide] has an inhibition at 0.01 µM [1] of 21%, an inhibition at 0.033 µM [1] of 51% and an inhibition at 0.1 µM [1] of 80%. For the same compound, the ED50 [2, 10] was 3.3 mg/kg.
O=C1NC(=O)C2(CCOc3ccc(F)cc32)N1 (stereo not drawn) [Q, d1-6-Fluoro-2,3-dihydro-spiro[4H-1-benzopyran-4,4'-imidazolidine]-2',5'-dione, reference compound] was tested, and the inhibition at 3.3 µM ([1]; Table 1, 3.3 × 10^-6) was 85%, the inhibition at 0.33 µM ([1]; Table 1, 3.3 × 10^-7 M) was 46% and the inhibition at 0.033 µM [1, 4] was 10%. For the same compound, the inhibition at 1 µM ([1]; Table 1, 10^-6 M) was 71%, the inhibition at 0.1 µM [1, 5] was 17% and the ED50 [2, 6] was 31.5 mg/kg. For the same compound, the ED50 ([2]; Table 3) was 36.6 mg/kg.
Compound O=C1NC(=O)C2(CC(CCl)Oc3ccc(F)cc32)N1 (racemic) [D, dl-2-Chloromethyl-6-fluoro-2,3-dihydro-spiro[4H-1-benzopyran-4,4'-imidazolidine]-2',5'-dione] has an inhibition at 0.33 µM ([1]; Table 1, 3.3 × 10^-7 M) of 78%, an inhibition at 0.033 µM [1, 4] of 28% and an inhibition at 0.1 µM [1, 5] of 53%. For the same compound, the IC50 ([1]; Table 1) was 90 nM and the ED50 [2, 6] was 1.3 mg/kg.
Work on O=C1NC(=O)C2(CC(CCl)Oc3ccc(F)cc32)N1 (stereo not drawn) [F, 1-2-Chloromethyl-6-fluoro-2,3-dihydro-spiro[4H-1-benzopyran-4,4'-imidazolidine]-2',5'-dione] yielded an inhibition at 3.3 µM ([1]; Table 1, 3.3 × 10^-6) of 52%, an inhibition at 10 µM [1, 3] of 74% and an inhibition at 1 µM ([1]; Table 1, 10^-6 M) of 28%. It also gave an IC50 ([1]; Table 1) of 2900 nM.
For O=C1NC(=O)C2(CCOc3ccc(F)cc32)N1 (stereo not drawn) [R, d-6-Fluoro-2,3-dihydro-spiro[4H-1-benzopyran-4,4'-imidazolidine]-2',5'-dione, reference compound], the “Inhibition (%)” value ([1]; Table 1, 3.3 × 10^-6) was 88%, the “Inhibition (%)” value ([1]; Table 1, 3.3 × 10^-7 M) was 61% and the “Inhibition (%)” value ([1]; Table 1, 3.3 × 10^-8 M) was 15%. For the same compound, the “Inhibition (%)” value ([1]; Table 1, 10^-6 M) was 80%, the “Inhibition (%)” value ([1]; Table 1, 10^-7 M) was 34% and the inhibition at 0.33 µM ([1]; Table 2, 3.3 × 10^-7 M) was 59%. It also gave an inhibition at 0.033 µM [1, 8] of 24%, an inhibition at 1 µM ([1]; Table 2, 10^-6 M) of 76% and an inhibition at 0.1 µM [1, 7] of 29%. It also gave an ED50 ([2]; Table 3) of 18.0 mg/kg.
With O=C1NC(=O)C2(CC(CCl)Oc3ccc(F)cc32)N1 (stereo not drawn) [Compound E, d-2-Chloromethyl-6-fluoro-2,3-dihydro-spiro[4H-1-benzopyran-4,4'-imidazolidine]-2',5'-dione] the inhibition at 0.033 µM [1, 4] was 38%, the inhibition at 0.1 µM [1, 5] was 66% and the inhibition at 0.01 µM ([1]; Table 1, 10^-8 M, read-out: Inhibition (%)) was 21%. It also gave an IC50 ([1]; Table 1) of 47 nM and an ED50 [2, 6] of 0.6 mg/kg.
In the case of O=C1NC(=O)C2(CCOc3ccc(F)cc32)N1 (stereo not drawn) [S, 1-6-Fluoro-2,3-dihydro-spiro[4H-1-benzopyran-4,4'-imidazolidine]-2',5'-dione, reference compound], the inhibition at 10 µM [1, 3] is reported as 32%.
For NC(=O)C1CC2(NC(=O)NC2=O)c2cc(F)cc([N+](=O)[O-])c2O1 (racemic) [L, dl-6-Fluoro-2,3-dihydro-8-nitro-2',5'-dioxo-spiro[4H-1-benzopyran-4,4'-imidazolidine]-2-carboxamide], the inhibition at 0.033 µM [1, 8] was 50%, the inhibition at 0.1 µM [1, 7] was 88% and the inhibition at 0.01 µM [1, 9] was 15%. For the same compound, the IC50 ([1]; Table 2) was 31 nM.
With O=C1NC(=O)C2(CC(CCl)Oc3c([N+](=O)[O-])cc(F)cc32)N1 (racemic) [N, dl-2-Chloromethyl-6-fluoro-2,3-dihydro-8-nitro-spiro[4H-1-benzopyran-4,4'-imidazolidine]-2',5'-dione] the inhibition at 0.33 µM ([1]; Table 2, 3.3 × 10^-7 M) was 81%, the inhibition at 0.033 µM [1, 8] was 30% and the inhibition at 0.1 µM [1, 7] was 59%. The IC50 ([1]; Table 2) was 76 nM.
Work on CC(=O)Nc1cc(F)cc2c1O[C@@H](C(N)=O)CC21NC(=O)NC1=O (stereo partly drawn) [P, d-8-Acetamido-6-fluoro-2,3-dihydro-2',5'-dioxo-spiro[4H-1-benzopyran-4,4'-imidazolidine]-2-carboxamide] yielded an inhibition at 0.02 µM ([1]; Table 2) of 56%, an inhibition at 0.033 µM [1, 8] of 69% and an inhibition at 0.01 µM [1, 9] of 30%. It also gave an IC50 ([1]; Table 2) of 18 nM.
NC(=O)[C@H]1CC2(NC(=O)NC2=O)c2cc(F)cc([N+](=O)[O-])c2O1 (stereo partly drawn) [J, d-6-Fluoro-2,3-dihydro-8-nitro-2',5'-dioxo-spiro[4H-1-benzopyran-4,4'-imidazolidine]-2-carboxamide] was tested, and the inhibition at 0.02 µM ([1]; Table 2) was 69%, the inhibition at 0.033 µM [1, 8] was 82% and the inhibition at 0.01 µM [1, 9] was 35%. It also gave an IC50 ([1]; Table 2) of 14 nM.

From patent US5001240A, “Process for preparing optically active hydantoins” (Sanwa Kagaku Kenkyyusho Co., Ltd., priority 1986, dated 1991)
